ChEMBL document CHEMBL2074461, “Functional characteristics and tissue distribution pattern of organic cation transporter 2 (OCTN2), an organic cation/carnitine transporter” (J Pharmacol Exp Ther, 1999)

Tests used:
[1] = biological target: T1, OCTN2 (organic cation/carnitine transporter 2) (Rattus norvegicus, UniProt O70594); assay: (§1) TP_TRANSPORTER: inhibition of Carnitine uptake (Carnitine: 0.025 uM, MPTP: 2000 uM) in OCTN2-expressing HRPE cells; format: functional, cell-based; design: scale not given: the % may be the effect or the level left; conditions: human, HRPE cells expressing OCTN2, probe carnitine (0.025 uM); read-out: Activity
T1 sequence (O70594 whole entry): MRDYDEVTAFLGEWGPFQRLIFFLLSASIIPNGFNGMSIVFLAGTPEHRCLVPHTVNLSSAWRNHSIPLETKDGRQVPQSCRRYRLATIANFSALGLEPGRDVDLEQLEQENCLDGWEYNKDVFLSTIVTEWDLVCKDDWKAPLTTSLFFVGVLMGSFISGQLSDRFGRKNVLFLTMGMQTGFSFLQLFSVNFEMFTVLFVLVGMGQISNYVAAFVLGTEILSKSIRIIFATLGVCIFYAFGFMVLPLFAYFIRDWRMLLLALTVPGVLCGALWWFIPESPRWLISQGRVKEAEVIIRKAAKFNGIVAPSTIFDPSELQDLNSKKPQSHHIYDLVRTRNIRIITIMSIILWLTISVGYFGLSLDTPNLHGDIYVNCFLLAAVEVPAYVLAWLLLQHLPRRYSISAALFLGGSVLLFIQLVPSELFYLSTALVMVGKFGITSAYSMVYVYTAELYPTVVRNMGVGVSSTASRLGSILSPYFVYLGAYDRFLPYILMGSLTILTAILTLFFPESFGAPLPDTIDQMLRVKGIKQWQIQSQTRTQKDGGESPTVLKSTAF

[2] = biological target: T2, OCTN2 (organic cation/carnitine transporter 2) (Homo sapiens, UniProt O76082); assay: as §1; format: functional, cell-based; design: scale not given: the % may be the effect or the level left; conditions: HRPE cells expressing OCTN2, probe carnitine (0.025 uM), read-out: Activity
T2 sequence (O76082 whole entry): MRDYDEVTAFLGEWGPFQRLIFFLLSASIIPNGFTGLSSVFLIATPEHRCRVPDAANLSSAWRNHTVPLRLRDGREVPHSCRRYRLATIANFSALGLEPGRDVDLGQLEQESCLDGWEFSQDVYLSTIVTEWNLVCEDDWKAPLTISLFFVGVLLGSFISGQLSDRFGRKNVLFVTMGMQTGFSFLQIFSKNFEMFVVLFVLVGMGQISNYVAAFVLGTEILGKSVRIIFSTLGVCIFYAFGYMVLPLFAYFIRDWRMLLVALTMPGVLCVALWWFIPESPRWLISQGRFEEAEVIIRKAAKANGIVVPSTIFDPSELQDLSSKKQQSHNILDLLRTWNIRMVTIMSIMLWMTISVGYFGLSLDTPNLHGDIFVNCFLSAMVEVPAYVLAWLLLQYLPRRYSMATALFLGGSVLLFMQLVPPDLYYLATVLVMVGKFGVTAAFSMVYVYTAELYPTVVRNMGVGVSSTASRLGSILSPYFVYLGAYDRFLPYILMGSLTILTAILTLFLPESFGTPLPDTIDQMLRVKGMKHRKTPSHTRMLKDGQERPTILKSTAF

[3] = biological target: T3, Organic cation/carnitine transporter 2 (Rattus norvegicus, UniProt O70594); assay: TP_TRANSPORTER: inhibition of TEA uptake (TEA: 20 uM, MPTP: 2500 uM) in OCTN2-expressing HRPE cells; format: functional, cell-based; conditions: human
T3 sequence (O70594 whole entry): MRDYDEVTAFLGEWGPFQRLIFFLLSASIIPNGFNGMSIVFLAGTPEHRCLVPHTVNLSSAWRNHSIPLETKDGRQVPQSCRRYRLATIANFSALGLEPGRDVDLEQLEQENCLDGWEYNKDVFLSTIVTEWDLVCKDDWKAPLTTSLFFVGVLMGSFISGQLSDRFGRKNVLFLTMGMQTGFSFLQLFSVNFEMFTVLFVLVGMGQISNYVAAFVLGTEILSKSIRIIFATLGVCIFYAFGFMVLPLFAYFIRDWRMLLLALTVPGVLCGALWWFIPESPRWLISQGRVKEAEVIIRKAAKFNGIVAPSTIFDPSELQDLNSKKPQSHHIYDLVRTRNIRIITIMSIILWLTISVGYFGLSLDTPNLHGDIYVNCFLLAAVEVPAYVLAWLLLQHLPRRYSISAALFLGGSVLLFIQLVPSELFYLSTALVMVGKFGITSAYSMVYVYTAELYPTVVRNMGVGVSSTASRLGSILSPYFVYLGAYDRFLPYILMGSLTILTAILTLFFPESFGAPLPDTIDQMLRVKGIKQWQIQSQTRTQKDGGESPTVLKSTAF

[4] = biological target: T3, Organic cation/carnitine transporter 2; assay: TP_TRANSPORTER: inhibition of TEA uptake (TEA: 20 uM, MPP+: 2500 uM) in OCTN2-expressing HRPE cells; format: functional, cell-based; conditions: human
[5] = biological target: T3, Organic cation/carnitine transporter 2; assay: (§2) TP_TRANSPORTER: uptake in OCTN2-expressing HRPE cells; format: functional, cell-based; conditions: human
[6] = biological target: T1, OCTN2 (organic cation/carnitine transporter 2); assay: TP_TRANSPORTER: inhibition of Carnitine uptake (Carnitine: 0.025 uM, Acetyl-L-carnitine: 500 uM) in OCTN2-expressing HRPE cells; format: functional, cell-based; design: scale not given: the % may be the effect or the level left; conditions: human, HRPE cells expressing OCTN2, probe carnitine (0.025 uM); read-out: Activity
[7] = biological target: T3, Organic cation/carnitine transporter 2; assay: TP_TRANSPORTER: inhibition of TEA uptake (TEA: 20 uM, Amphetamine: 2500 uM) in OCTN2-expressing HRPE cells; format: functional, cell-based; conditions: human
[8] = biological target: T1, OCTN2 (organic cation/carnitine transporter 2); assay: TP_TRANSPORTER: inhibition of Carnitine uptake (Carnitine: 0.025 uM, Betaine: 500 uM) in OCTN2-expressing HRPE cells; format: functional, cell-based; design: scale not given: the % may be the effect or the level left; conditions: human, HRPE cells expressing OCTN2, probe carnitine (0.025 uM); read-out: Activity
[9] = biological target: T1, OCTN2 (organic cation/carnitine transporter 2); assay: in vitro; conditions: human, HRPE cells expressing OCTN2, probe carnitine (0.025 uM)
Description: (§3) TP_TRANSPORTER: inhibition of Carnitine uptake (Carnitine: 0.025 uM, Choline: 2000 uM) in OCTN2-expressing HRPE cells

[10] = biological target: T2, OCTN2 (organic cation/carnitine transporter 2); assay: in vitro; conditions: HRPE cells expressing OCTN2, probe carnitine (0.025 uM)
Description: as §3

[11] = biological target: T1, OCTN2 (organic cation/carnitine transporter 2); assay: in vitro; conditions: human, HRPE cells expressing OCTN2, probe carnitine (0.025 uM); remark: listed apart in the source
Description: TP_TRANSPORTER: inhibition of Carnitine uptake (Carnitine: 0.025 uM, Cimetidine: 2000 uM) in OCTN2-expressing HRPE cells

[12] = biological target: T3, Organic cation/carnitine transporter 2; assay: TP_TRANSPORTER: inhibition of TEA uptake (TEA: 20 uM, Desipramine: 2500 uM) in OCTN2-expressing HRPE cells; format: functional, cell-based; conditions: human
[13] = biological target: T2, OCTN2 (organic cation/carnitine transporter 2); assay: TP_TRANSPORTER: inhibition of Carnitine uptake (Carnitine: 0.025 uM, Desipramine: 500 uM) in OCTN2-expressing HRPE cells; format: functional, cell-based; design: scale not given: the % may be the effect or the level left; conditions: HRPE cells expressing OCTN2, probe carnitine (0.025 uM), read-out: Activity
[14] = biological target: T3, Organic cation/carnitine transporter 2; assay: TP_TRANSPORTER: inhibition of TEA uptake (TEA: 20 uM, Guanidine: 2500 uM) in OCTN2-expressing HRPE cells; format: functional, cell-based; conditions: human
[15] = biological target: T3, Organic cation/carnitine transporter 2; assay: TP_TRANSPORTER: inhibition of TEA uptake (TEA: 20 uM, Methanphetamine: 2500 uM) in OCTN2-expressing HRPE cells; format: functional, cell-based; conditions: human
[16] = biological target: T3, Organic cation/carnitine transporter 2; assay: TP_TRANSPORTER: inhibition of TEA uptake (TEA: 20 uM, Norepinephrine: 2500 uM) in OCTN2-expressing HRPE cells; format: functional, cell-based; conditions: human
[17] = biological target: T3, Organic cation/carnitine transporter 2; assay: TP_TRANSPORTER: inhibition of TEA uptake (TEA: 20 uM, Procainamide: 2500 uM) in OCTN2-expressing HRPE cells; format: functional, cell-based; conditions: human
[18] = biological target: T4, Organic cation/carnitine transporter 2 (Homo sapiens, UniProt O76082); assay: as §2; format: functional, cell-based
T4 sequence (O76082 whole entry): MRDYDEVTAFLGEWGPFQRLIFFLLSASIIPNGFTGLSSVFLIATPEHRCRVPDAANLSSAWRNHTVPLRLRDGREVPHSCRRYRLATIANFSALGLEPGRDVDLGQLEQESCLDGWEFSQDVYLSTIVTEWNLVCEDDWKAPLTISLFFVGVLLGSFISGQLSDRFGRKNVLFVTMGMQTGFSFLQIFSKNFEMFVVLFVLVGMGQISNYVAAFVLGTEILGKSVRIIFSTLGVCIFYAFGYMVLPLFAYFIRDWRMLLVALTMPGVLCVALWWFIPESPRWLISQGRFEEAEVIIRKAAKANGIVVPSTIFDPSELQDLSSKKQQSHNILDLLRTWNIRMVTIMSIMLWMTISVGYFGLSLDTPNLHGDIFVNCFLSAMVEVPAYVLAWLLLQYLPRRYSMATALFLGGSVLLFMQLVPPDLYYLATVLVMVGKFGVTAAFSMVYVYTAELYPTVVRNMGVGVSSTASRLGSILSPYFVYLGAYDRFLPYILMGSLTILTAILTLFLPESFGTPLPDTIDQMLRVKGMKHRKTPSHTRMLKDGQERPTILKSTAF

[19] = biological target: T3, Organic cation/carnitine transporter 2; assay: TP_TRANSPORTER: inhibition of TEA uptake (TEA: 20 uM, Serotonin: 2500 uM) in OCTN2-expressing HRPE cells; format: functional, cell-based; conditions: human
[20] = biological target: T3, Organic cation/carnitine transporter 2; assay: TP_TRANSPORTER: inhibition of TEA uptake (TEA: 20 uM, THA: 2500 uM) in OCTN2-expressing HRPE cells; format: functional, cell-based; conditions: human
[21] = biological target: T3, Organic cation/carnitine transporter 2; assay: TP_TRANSPORTER: inhibition of TEA uptake (TEA: 20 uM, TMA: 2500 uM) in OCTN2-expressing HRPE cells; format: functional, cell-based; conditions: human
[22] = biological target: T1, OCTN2 (organic cation/carnitine transporter 2); assay: in vitro; conditions: human, HRPE cells expressing OCTN2, probe carnitine (0.025 uM); remark: listed apart in the source
Description: (§4) TP_TRANSPORTER: inhibition of Carnitine uptake (Carnitine: 0.025 uM, TEA: 2000 uM) in OCTN2-expressing HRPE cells

[23] = biological target: T2, OCTN2 (organic cation/carnitine transporter 2); assay: in vitro; conditions: HRPE cells expressing OCTN2, probe carnitine (0.025 uM); remark: listed apart in the source
Description: as §4

[24] = substrate: C[N+](C)(C)CC(O)CC(=O)[O-]; assay: as §2; format: functional, cell-based
[25] = substrate: CC[N+](CC)(CC)CC; assay: cells, lysate or membranes named

Molecule: CN1CC=C(c2ccccc2)CC1
- activity at 2000 µM [1]: 4%
- activity at 2000 µM [2]: 47%
- Inhibition [3]: inhibitor [50-75 % inhibition]

Molecule: C[n+]1ccc(-c2ccccc2)cc1
- Inhibition [4]: inhibitor [50-75 % inhibition]

Molecule: CC(=O)O[C@H](CC(=O)[O-])C[N+](C)(C)C [ACETYLCARNITINE]
- Activity [5]: substrate [+]
- activity at 500 µM [6]: 1%

Molecule: CC(N)Cc1ccccc1 (stereo unspecified) [AMPHETAMINE]
- Inhibition [7]: inhibitor [20-30 % inhibition]

Molecule: C[N+](C)(C)CC(=O)O [BETAINE]
- activity at 500 µM [8]: 51%

Molecule: C[N+](C)(C)CCO [CHOLINE]
- activity at 2000 µM [9]: 24%
- activity at 2000 µM [10]: 82%

Molecule: CN/C(=N/CCSCc1nc[nH]c1C)NC#N [CIMETIDINE]
- activity at 2000 µM [11]: 29%

Molecule: CNCCCN1c2ccccc2CCc2ccccc21 [DESIPRAMINE]
- Inhibition [12]: inhibitor [90-95 % inhibition]
- activity at 500 µM [13]: 0%

Molecule: N=C(N)N [GUANIDINE]
- Activity [14]: is not an inhibitor [-]

Molecule: CN[C@@H](C)Cc1ccccc1 [METHAMPHETAMINE]
- Inhibition [15]: inhibitor [20-30 % inhibition]

Molecule: NC[C@H](O)c1ccc(O)c(O)c1 [NOREPINEPHRINE]
- Activity [16]: is not an inhibitor [-]

Molecule: CCN(CC)CCNC(=O)c1ccc(N)cc1 [PROCAINAMIDE]
- Inhibition [17]: inhibitor [50-75 % inhibition]

Molecule: CCC(=O)OC(CC(=O)[O-])C[N+](C)(C)C (stereo unspecified) [Propionyl-Carnitine]
- Activity [18]: substrate [+]
- Activity [5]: substrate [+]

Molecule: NCCc1c[nH]c2ccc(O)cc12 [SEROTONIN]
- Activity [19]: is not an inhibitor [-]

Molecule: CCCCCC[N+](CCCCCC)(CCCCCC)CCCCCC [TETRAHEXYLAMMONIUM]
- Inhibition [20]: inhibitor [90-95 % inhibition]

Molecule: C[N+](C)(C)C.[Cl-] [TETRAMETHYLAMMONIUM]
- Inhibition [21]: inhibitor [20-30 % inhibition]

Molecule: CC[N+](CC)(CC)CC [TETRYLAMMONIUM]
- activity at 2000 µM [22]: 4%
- activity at 2000 µM [23]: 40%

B1: Organic cation/carnitine transporter 2 (Rattus norvegicus) (protein)
chain: MRDYDEVTAFLGEWGPFQRLIFFLLSASIIPNGFNGMSIVFLAGTPEHRCLVPHTVNLSSAWRNHSIPLETKDGRQVPQSCRRYRLATIANFSALGLEPGRDVDLEQLEQENCLDGWEYNKDVFLSTIVTEWDLVCKDDWKAPLTTSLFFVGVLMGSFISGQLSDRFGRKNVLFLTMGMQTGFSFLQLFSVNFEMFTVLFVLVGMGQISNYVAAFVLGTEILSKSIRIIFATLGVCIFYAFGFMVLPLFAYFIRDWRMLLLALTVPGVLCGALWWFIPESPRWLISQGRVKEAEVIIRKAAKFNGIVAPSTIFDPSELQDLNSKKPQSHHIYDLVRTRNIRIITIMSIILWLTISVGYFGLSLDTPNLHGDIYVNCFLLAAVEVPAYVLAWLLLQHLPRRYSISAALFLGGSVLLFIQLVPSELFYLSTALVMVGKFGITSAYSMVYVYTAELYPTVVRNMGVGVSSTASRLGSILSPYFVYLGAYDRFLPYILMGSLTILTAILTLFFPESFGAPLPDTIDQMLRVKGIKQWQIQSQTRTQKDGGESPTVLKSTAF
- Km [24]: 14.8 µM
- Km [25]: 63 µM
